Earlier results as cited in patent US9095514B2, “Pharmaceutical composition” (SUN PHARMA ADVANCED RESEARCH COMPANY LTD., priority 2009, dated 2015).

stability in certain solvents (Sara Wu et al J. Pharm. Sci 89): quite unstable
solubility of solid bortezomib (at 1 mg/ml in 0.9% w/v of sodium chloride): not soluble
not stable for longer than (stored at 2° C.-8° C., U.S. Pat. No. 6,713,446): 3-6 months
stable for (HPLC purity>97%) (stored at −2° C. to −20° C., U.S. Pat. No. 6,713,446): more than 2 years
Compound: CC(C)C[C@H](NC(=O)[C@H](Cc1ccccc1)NC(=O)c1cnccn1)B(O)O [Bortezomib, N-(2-pyrazine) carbonyl-L-phenylalanine-L-leucine boronic acid]
